# Data as given in patent US20220386611A1, “NOVEL HETEROARYL-TRIAZOLE COMPOUNDS AS PESTICIDES” (Bayer Aktiengesellschaft, priority 2019, published 2022).
# Columns and labels:
# Format in all cases: in vivo
# [1] = test system: adult engorged female ticks (Rhipicephalus microplus); test: Rhipicephalus (Boophilus) microplus injection test; settings: 168 h, after 7 days, read-out: efficacy (infertile eggs); for pest or weed control at 0.004 mg: 4 μg/animal
# Method in brief: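 Abdominal injection, 1 μL compound/DMSO, n=5 engorged adult females; climate-chamber incubation. Readout d7: fertile egg laying; doubtful eggs held to hatch (~42 d). % efficacy = infertile eggs (100% all infertile).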
# [2] = test system: larvae of the banded cucumber beetle (Diabrotica balteata); test: Diabrotica balteata spray test; settings: 168 h, 100 g/ha (=32 μg/well), after 7 days, wheat seeds, read-out: efficacy (seedlings grown like untreated, uninfected control)
# Method in brief: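 Germinated wheat seedlings sprayed with compound in acetone/DMF with emulsifier-containing water, then infested with 10-20 Diabrotica balteata larvae per unit. Efficacy scored after 7 days as seedling growth relative to untreated, uninfested control (100%) versus no growth (0%).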
# [3] = test system: green peach aphid (Myzus persicae); test: Myzus persicae spray test; settings: foliar, 120 h, after 5 days, Chinese cabbage leaf disks
# Method in brief: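 Chinese cabbage leaf disks infested with all instars of Myzus persicae were sprayed with compound formulated in acetone/dimethylformamide and diluted in water containing 1000 ppm emulsifier. Percent mortality was scored after 5 days.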
# [4] = test system: green peach aphid (Myzus persicae); test: Myzus persicae oral test; settings: 120 h
# Method in brief: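 Compound in acetone was diluted with water, and 50 μL was mixed with 150 μL IPL41 insect medium (33% + 15% sugar). A mixed aphid population fed on this through a parafilm seal. Mortality % was scored after 5 days, where 100% means all aphids were killed.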
# [5] = test system: Blattella germanica strain PAULINIA; test: Blattella germanica test (BLTTGE surface treatment & contact assay); settings: surface concentration 20 mg/m^2, 30 minutes exposure, 24 hours after contact, read-out: efficacy (mortality)
# Method: Blattella germanica Test (BLTTGE Surface Treatment & Contact Assay)
# Solvent: Aceton+2000 ppm rapeseed oil methyl ester (RME)
# In order to produce a sufficient, active ingredient containing solution it is necessary to solve the test compound in the solvent-mix (acetone at 2 mg/ml/RME 2000 ppm). This solution is pipetted onto a glazed tile and after evaporation of the acetone, adult animals of the species Blattella germanica strain PAULINIA are placed onto the dried surface. The exposure time is 30 minutes. Mortality in percent (%) is determined 24 hours after contact of the insects to the treated surface. 100% mortality means that all tested insects are dead, whereas 0% means that no insect died.
# [6] = test system: cattle ticks (Rhipicephalus microplus) strain Parkhurst, SP-resistant; test: Rhipicephalus (Boophilus) microplus dip test; settings: 100 ppm, after 7 days
# Method: Rhipicephalus (Boophilus) microplus—Dip Test
# Test animal: cattle ticks (Rhipicephalus microplus) strain Parkhurst, SP-resistant
# Solvent: dimethyl sulfoxide
# To produce a suitable preparation of active compound, 10 mg of active compound are dissolved in 0.5 mL solvent, and the concentrate is diluted with water to the desired concentration.
# This compound solution is pipetted into tubes. 8-10 engorged, adult, female cattle ticks (Rhipicephalus microplus) are placed in perforated tubes. These tubes are immersed in the aqueous compound solution until the ticks are completely moistened. After the liquid has drained off, the ticks are transferred to a filter paper in a plastic tray and stored in a climate chamber.
# After 7 days egg deposition of fertile eggs is monitored. Eggs where fertility is not visible are stored in a climate chamber till hatching after about 42 days. An efficacy of 100% means all eggs are infertile; 0% means all eggs are fertile.
compound,measurement,setting,value
CC(NC(=O)c1cc(C(F)(F)F)cc(C(F)(F)F)c1)c1nc(Br)nn1-c1ncccn1 (centres unmarked) [Example I-010],pest or weed control at 0.004 mg,[1],100%
same,"pest or weed control at 32 µg/disc, 100 g/ha",[2],80%
same,mortality at 100 g/ha,[3],90%
same,mortality at 4 ppm,[4],100%
CC(NC(=O)c1cc(C(F)(F)F)cc(C(F)(F)F)c1)c1nc(Cl)nn1-c1ncccn1 (centres unmarked) [Example I-002],pest or weed control at 0.004 mg,[1],100%
same,pest or weed control at 0.02 mg,[1]; 20 μg/animal,100%
same,"pest or weed control at 32 µg/disc, 100 g/ha",[2],100%
same,mortality at 20 mg/m2,[5],80 to 100%
same,efficacy (infertile eggs),[6],80%
same,mortality at 4 ppm,[4],100%
CC(NC(=O)c1cc(C(F)(F)F)cc(C(F)(F)F)c1)c1nc(I)nn1-c1ncccn1 (centres unmarked) [Example I-021],"pest or weed control at 32 µg/disc, 100 g/ha",[2],100%
same,mortality at 100 g/ha,[3],90%
same,mortality at 20 mg/m2,[5],80 to 100%
same,mortality at 4 ppm,[4],100%
